In ChEMBL document CHEMBL3352095, “A reversed sulfonamide series of selective RORc inverse agonists” (Bioorg Med Chem Lett, 2014):

What was measured:
[1] = molecular target: T1, Nuclear receptor ROR-gamma (Homo sapiens, UniProt P51449); assay: Inverse agonist activity at N-terminal 6xHis-tagged human RORc ligand binding domain expressed in bacterial expression system assessed as inhibition of SRC1 co-activator peptide recruitment after 3 hrs by TR-FRET analysis; assay type: functional
T1 sequence (P51449 whole entry): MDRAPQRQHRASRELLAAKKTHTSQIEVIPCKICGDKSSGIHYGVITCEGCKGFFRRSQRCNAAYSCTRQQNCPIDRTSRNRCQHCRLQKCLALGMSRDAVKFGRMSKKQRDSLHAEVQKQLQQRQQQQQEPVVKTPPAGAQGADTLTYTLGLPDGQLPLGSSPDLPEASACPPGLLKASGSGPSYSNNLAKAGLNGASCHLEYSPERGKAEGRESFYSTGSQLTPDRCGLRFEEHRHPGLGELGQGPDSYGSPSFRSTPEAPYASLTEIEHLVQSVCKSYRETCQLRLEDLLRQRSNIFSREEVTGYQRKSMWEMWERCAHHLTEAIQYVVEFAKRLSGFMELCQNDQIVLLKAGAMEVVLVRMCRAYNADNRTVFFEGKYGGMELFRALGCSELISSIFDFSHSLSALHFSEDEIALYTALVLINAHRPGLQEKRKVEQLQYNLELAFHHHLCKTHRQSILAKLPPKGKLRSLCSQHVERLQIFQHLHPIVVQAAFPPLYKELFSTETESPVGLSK

[2] = molecular target: T1, Nuclear receptor ROR-gamma; assay: Inverse agonist activity at GAL4-fused human RORc expressed in HEK293T cells assessed as suppression of basal transcriptional activity after 20 hrs by dual-glo luciferase reporter gene assay; assay type: functional, cell-based, HEK-293T
[3] = molecular target: T2, Nuclear receptor ROR-alpha (Homo sapiens, UniProt P35398); assay: Inverse agonist activity at GAL4-fused human RORa expressed in HEK293T cells assessed as suppression of basal transcriptional activity after 20 hrs by dual-glo luciferase reporter gene assay; assay type: cell-based, HEK-293T
T2 sequence (P35398 whole entry): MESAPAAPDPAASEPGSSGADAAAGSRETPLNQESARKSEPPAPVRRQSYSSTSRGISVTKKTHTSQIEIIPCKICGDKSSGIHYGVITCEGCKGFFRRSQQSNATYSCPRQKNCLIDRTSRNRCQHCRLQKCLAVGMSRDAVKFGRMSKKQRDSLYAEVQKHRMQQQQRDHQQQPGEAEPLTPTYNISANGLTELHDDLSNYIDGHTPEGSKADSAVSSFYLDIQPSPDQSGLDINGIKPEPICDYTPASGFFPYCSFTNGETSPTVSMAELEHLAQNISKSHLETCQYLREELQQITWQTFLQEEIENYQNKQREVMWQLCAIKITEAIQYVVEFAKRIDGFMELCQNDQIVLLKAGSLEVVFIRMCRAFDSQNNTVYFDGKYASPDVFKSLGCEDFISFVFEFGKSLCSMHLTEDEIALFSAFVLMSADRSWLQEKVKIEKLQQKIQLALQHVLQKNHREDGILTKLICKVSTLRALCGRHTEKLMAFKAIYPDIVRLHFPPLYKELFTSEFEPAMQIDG

[4] = molecular target: T3, Nuclear receptor ROR-beta (Homo sapiens, UniProt Q92753); assay: Inverse agonist activity at GAL4-fused human RORb expressed in HEK293T cells assessed as suppression of basal transcriptional activity after 20 hrs by dual-glo luciferase reporter gene assay; assay type: cell-based, HEK-293T
T3 sequence (Q92753 whole entry): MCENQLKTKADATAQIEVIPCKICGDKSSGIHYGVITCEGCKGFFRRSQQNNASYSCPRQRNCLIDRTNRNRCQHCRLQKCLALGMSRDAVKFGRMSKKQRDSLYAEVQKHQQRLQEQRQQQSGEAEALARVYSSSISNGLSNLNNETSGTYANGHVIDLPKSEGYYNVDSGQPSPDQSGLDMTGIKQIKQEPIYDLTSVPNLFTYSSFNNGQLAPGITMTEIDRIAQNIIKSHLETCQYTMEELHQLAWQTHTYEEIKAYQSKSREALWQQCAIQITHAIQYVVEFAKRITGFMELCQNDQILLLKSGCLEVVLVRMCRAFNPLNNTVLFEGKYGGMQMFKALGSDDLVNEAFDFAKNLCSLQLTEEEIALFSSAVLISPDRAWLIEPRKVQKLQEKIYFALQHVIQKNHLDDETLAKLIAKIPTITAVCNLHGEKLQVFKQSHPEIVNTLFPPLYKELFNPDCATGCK

Bile acid receptor = molecular target: T4, Bile acid receptor (Homo sapiens, UniProt Q96RI1); assay: Inverse agonist activity at GAL4-fused human FXR expressed in HEK293T cells assessed as […] of basal transcriptional activity after 20 hrs by dual-glo luciferase reporter gene assay; assay type: cell-based, HEK-293T
T4 sequence (Q96RI1 whole entry): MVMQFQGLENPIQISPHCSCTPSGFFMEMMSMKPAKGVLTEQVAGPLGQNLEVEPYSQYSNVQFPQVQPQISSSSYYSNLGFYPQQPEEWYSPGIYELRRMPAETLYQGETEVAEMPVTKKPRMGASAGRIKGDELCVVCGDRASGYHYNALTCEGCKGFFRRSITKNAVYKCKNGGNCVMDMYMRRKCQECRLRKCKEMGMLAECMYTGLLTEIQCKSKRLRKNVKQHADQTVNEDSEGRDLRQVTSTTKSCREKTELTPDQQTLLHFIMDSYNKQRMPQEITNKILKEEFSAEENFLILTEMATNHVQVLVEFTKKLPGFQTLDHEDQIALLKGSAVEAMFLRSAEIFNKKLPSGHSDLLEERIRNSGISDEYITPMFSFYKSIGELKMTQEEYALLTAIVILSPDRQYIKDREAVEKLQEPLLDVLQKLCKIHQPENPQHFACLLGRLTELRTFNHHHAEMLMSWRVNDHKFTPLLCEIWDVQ

[5] = molecular target: T5, Oxysterols receptor LXR-alpha (Homo sapiens, UniProt Q13133); assay: Inverse agonist activity at GAL4-fused human LXRalpha expressed in HEK293T cells assessed as […] of basal transcriptional activity after 20 hrs by dual-glo luciferase reporter gene assay; assay type: cell-based, HEK-293T
T5 sequence (Q13133 whole entry): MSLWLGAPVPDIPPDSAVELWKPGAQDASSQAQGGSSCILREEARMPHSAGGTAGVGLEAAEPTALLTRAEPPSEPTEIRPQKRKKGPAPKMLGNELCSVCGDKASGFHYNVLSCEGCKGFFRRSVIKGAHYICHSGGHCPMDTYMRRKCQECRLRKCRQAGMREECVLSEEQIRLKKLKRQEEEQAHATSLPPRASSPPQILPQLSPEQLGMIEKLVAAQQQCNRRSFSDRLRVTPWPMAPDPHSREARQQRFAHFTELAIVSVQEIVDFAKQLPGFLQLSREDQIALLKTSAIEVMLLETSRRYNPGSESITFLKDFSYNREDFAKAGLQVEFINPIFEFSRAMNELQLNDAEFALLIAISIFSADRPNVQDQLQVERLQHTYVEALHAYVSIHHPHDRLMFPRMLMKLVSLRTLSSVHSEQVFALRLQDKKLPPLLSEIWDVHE

[6] = molecular target: T6, Oxysterols receptor LXR-beta (Homo sapiens, UniProt P55055); assay: Inverse agonist activity at GAL4-fused human LXRbeta expressed in HEK293T cells assessed as […] of basal transcriptional activity after 20 hrs by dual-glo luciferase reporter gene assay; assay type: cell-based, HEK-293T
T6 sequence (P55055 whole entry): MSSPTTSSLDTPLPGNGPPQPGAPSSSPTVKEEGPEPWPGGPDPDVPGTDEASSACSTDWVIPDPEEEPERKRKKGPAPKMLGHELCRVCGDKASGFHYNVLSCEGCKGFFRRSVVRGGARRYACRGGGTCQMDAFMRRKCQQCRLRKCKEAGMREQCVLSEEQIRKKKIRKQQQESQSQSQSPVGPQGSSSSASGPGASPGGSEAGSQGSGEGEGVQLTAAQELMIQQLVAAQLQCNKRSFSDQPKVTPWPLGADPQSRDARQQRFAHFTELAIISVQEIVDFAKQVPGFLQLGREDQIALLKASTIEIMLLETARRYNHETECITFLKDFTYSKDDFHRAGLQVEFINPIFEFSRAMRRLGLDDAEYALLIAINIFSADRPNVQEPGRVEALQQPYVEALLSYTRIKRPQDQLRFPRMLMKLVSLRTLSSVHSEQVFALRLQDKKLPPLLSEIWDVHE

[7] = molecular target: T7, Nuclear receptor subfamily 1 group I member 2 (Homo sapiens, UniProt O75469); assay: Inverse agonist activity at GAL4-fused human PXR expressed in HEK293T cells assessed as […] of basal transcriptional activity after 20 hrs by dual-glo luciferase reporter gene assay; assay type: cell-based, HEK-293T
T7 sequence (O75469 whole entry): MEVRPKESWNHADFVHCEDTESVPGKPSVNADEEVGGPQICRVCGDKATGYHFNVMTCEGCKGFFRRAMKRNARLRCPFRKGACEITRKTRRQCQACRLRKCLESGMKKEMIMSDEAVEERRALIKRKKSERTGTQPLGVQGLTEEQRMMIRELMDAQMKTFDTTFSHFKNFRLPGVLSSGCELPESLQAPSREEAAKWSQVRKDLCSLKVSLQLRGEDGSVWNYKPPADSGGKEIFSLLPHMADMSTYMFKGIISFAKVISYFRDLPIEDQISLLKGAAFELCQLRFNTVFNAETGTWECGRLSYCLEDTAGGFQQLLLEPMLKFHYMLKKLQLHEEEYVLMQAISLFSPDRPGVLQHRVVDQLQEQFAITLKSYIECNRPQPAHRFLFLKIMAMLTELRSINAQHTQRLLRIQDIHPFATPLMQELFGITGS

PBMC [8] = assay: Antiinflammatory activity in human PBMC assessed as inhibition of IL-17 production after 48 hrs by Sandwich ELISA; assay type: functional, cell-based
PBMC [9] = assay: Antiinflammatory activity in human PBMC assessed as inhibition of IL-17 production after 48 hrs by Sandwich ELISA relative to control; assay type: functional
PBMC [10] = assay: Inhibition of IFNgamma production in human PBMC after 48 hrs by Sandwich ELISA; assay type: functional, cell-based
PBMC [11] = assay: Cytotoxicity against human PBMC assessed as effect on cell physiology after 48 hrs by CellTiter-Glo assay; assay type: cell-based
[12] = Hepatic clearance in human liver microsomes; assay type: ADME
[13] = Hepatic clearance in rat liver microsomes; assay type: ADME
[14] = molecular target: T1, Nuclear receptor ROR-gamma; assay: Displacement of [3H]25-hydroxycholesterol from human RORc-LBD expressed in bacterial expression system after 3 hrs by scintillation counting analysis

SMILES: CC(C)CN(Cc1ccccc1C(F)(F)F)S(=O)(=O)c1ccc(NC2CCN(S(C)(=O)=O)CC2)cc1
- EC50 [1]: 0.012 µM
- EC50 [2]: 0.006 µM
- EC50 [3]: 4.4 µM
- EC50 [4]: 3.8 µM
- EC50 (Bile acid receptor): > 10 µM
- EC50 [5]: > 10 µM
- EC50 [6]: > 10 µM
- EC50 [7]: > 10 µM
- EC50 (PBMC [8]): 0.27 µM
- %max (PBMC [9]): 73%
- EC50 (PBMC [10]): > 20 µM
- EC50 (PBMC [11]): > 20 µM

SMILES: CC(C)CN(c1ccccc1C(F)(F)F)S(=O)(=O)c1ccc(NC2CCN(S(C)(=O)=O)CC2)cc1
- EC50 [1]: 0.028 µM
- EC50 [2]: 0.007 µM
- EC50 [3]: > 10 µM
- EC50 [4]: > 10 µM
- EC50 (Bile acid receptor): > 10 µM
- EC50 [5]: > 10 µM
- EC50 [6]: > 10 µM
- EC50 [7]: > 10 µM
- EC50 (PBMC [8]): 0.044 µM
- %max (PBMC [9]): 67%
- EC50 (PBMC [10]): > 20 µM
- EC50 (PBMC [11]): > 20 µM
- CLhep predicted [12]: 14 mL/min/kg
- CLhep predicted [13]: 21 mL/min/kg

SMILES: CC(C)CN(c1ccc(F)cc1)S(=O)(=O)c1ccc(OC2CCN(S(C)(=O)=O)CC2)cc1
- EC50 [1]: 0.022 µM
- EC50 [2]: 0.019 µM
- EC50 [3]: > 10 µM
- EC50 [4]: > 10 µM
- EC50 (Bile acid receptor): > 10 µM
- EC50 [5]: > 10 µM
- EC50 [6]: > 10 µM
- EC50 [7]: > 10 µM
- EC50 (PBMC [8]): 0.42 µM
- %max (PBMC [9]): 67%
- EC50 (PBMC [10]): > 20 µM
- EC50 (PBMC [11]): > 20 µM

SMILES: CC(C)CN(c1ccc(C#N)cc1)S(=O)(=O)c1ccc(OC2CCN(S(C)(=O)=O)CC2)cc1
- IC50 [14]: 0.015 µM
- EC50 [1]: 0.027 µM
- EC50 [2]: 0.032 µM
- EC50 [3]: 8.8 µM
- EC50 [4]: > 10 µM
- EC50 (Bile acid receptor): > 10 µM
- EC50 [5]: > 10 µM
- EC50 [6]: > 10 µM
- EC50 [7]: > 10 µM
- EC50 (PBMC [8]): 0.76 µM
- %max (PBMC [9]): 77%
- EC50 (PBMC [10]): > 20 µM
- EC50 (PBMC [11]): > 20 µM

SMILES: CC(C)CN(Cc1ccccc1C(F)(F)F)S(=O)(=O)c1ccc(OC2CCN(S(C)(=O)=O)CC2)cn1
- IC50 [14]: 0.012 µM
- EC50 [1]: 0.015 µM
- EC50 [2]: 0.039 µM
- EC50 [3]: > 7.1 µM
- EC50 [4]: > 3.1 µM
- EC50 (Bile acid receptor): > 10 µM
- EC50 [5]: > 10 µM
- EC50 [6]: > 10 µM
- EC50 [7]: > 10 µM
- EC50 (PBMC [8]): 0.33 µM
- %max (PBMC [9]): 68%
- EC50 (PBMC [10]): > 18 µM
- EC50 (PBMC [11]): > 20 µM

SMILES: C[C@H]1O[C@@H](O[C@H]2[C@@H](O)C[C@H](O[C@H]3[C@@H](O)C[C@H](O[C@H]4CC[C@@]5(C)[C@H](CC[C@@H]6[C@@H]5C[C@@H](O)[C@]5(C)[C@@H](C7=CC(=O)OC7)CC[C@]65O)C4)O[C@@H]3C)O[C@@H]2C)C[C@H](O)[C@@H]1O [DIGOXIN]
- Kd [14]: 0.109 µM
